Measurements reported in US5079257A, “Indoloquinone compounds” (priority 1986, dated 1992).
Values after ≈ are worked out from the molar mass of the structure shown. Where two headings read alike, the source gives them in different places.

Experiments:
[1] = tested on: A 204 cells; rhabdomyosarcoma; experiment: In vitro panel of human tumour lines (TNO): A 204; assay type: cell-based; conditions: about 72 hours; also: key: -: no inhibition of cell growth; +: total cell-kill
Experimental: (§1) Compounds E.O. 1, E.O. 2, E.O. 4, E.O. 4A, E.O. 8, E.O. 9, […], E.O. 33, and E.O. 35 were tested for their activity against five human tumour cell lines at the Radiobiological Institute TNO Rijswijk.
(§2) The new in vitro prescreen uses human tumour clones; it was set up by Dr. P. Lelieveld at TNO Rijswijk and comprises testing compounds in a bioliquid assay for their cytostatic activity against the following five human tumour lines:
(§3) After a continuous exposure to the drugs to be tested and to Adriamycin in `24 well tissue culture clusters, type 3524 (Costar)`, the remaining cells are fixed and stained. Using increasing drug concentrations the inhibiting concentration can be estimated qualitatively.
(§4) Cells: the human tumour cells are maintained in Dulbecco's medium supplemented with 10 percent foetal calf serum.
(§5) A, T and Z cell suspensions: 5·10^4 cells/ml
(§6) The cells were grafted into 16 mm wells for 48 hours (0.5 ml cell suspension per well was used).
(§7) Drugs: the compound to be tested was dissolved in appropriate concentrations in a mixture of Hepes-buffered Hanks' balanced salt solution and ethanol. The drug solutions (0.05 ml) were added to the different wells. The final ethanol concentration in each well was less than one percent.
(§8) The cells were continuously incubated with the compound under test at 37° in an atmosphere of 10 percent CO2 in humidified air for about 72 hours.
(§9) Determination of the inhibiting dose: the cells were fixed and stained with a solution of crystal violet in methanol/formaldehyde.

IgR37 cells melanoma = experiment: In vitro panel of human tumour lines (TNO): IgR-37; assay type: cell-based; conditions: about 72 hours; also: key: -: no inhibition of cell growth; +: total cell-kill
Experimental: as §1, §2, §3, §4, §5, §6, §7, §8, §9

[2] = tested on: T 24 cells; bladder carcinoma; experiment: In vitro panel of human tumour lines (TNO): T 24; assay type: cell-based; conditions: about 72 hours; also: key: -: no inhibition of cell growth; +: total cell-kill
Experimental: as §1, §2, §3, §4, §5, §6, §7, §8, §9

MCF7 breast cancer cells = experiment: In vitro panel of human tumour lines (TNO): MCF-7; assay type: cell-based; conditions: about 72 hours; also: key: -: no inhibition of cell growth; +: total cell-kill
Experimental: as §1, §2, §3, §4
(§10) M and W cell suspensions: 10^5 cells/ml.
as §6, §7, §8, §9

WiDr cells; colon tumour = experiment: In vitro panel of human tumour lines (TNO): WiDr; assay type: cell-based; conditions: about 72 hours; also: key: -: no inhibition of cell growth; +: total cell-kill
Experimental: as §1, §2, §3, §4, §10, §6, §7, §8, §9

L1210 cells [3] = experiment: L1210 activity (bioliquid assay), cytotoxicity; assay type: cell-based; conditions: Mus musculus
Summary of the method: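 Suspension culture in RPMI with 15% FCS and 2-mercaptoethanol (60 μmol). Continuous compound exposure for 48 hours at 37° C under 5% CO2 in humidified air. Cell numbers then counted on an electronic microcell counter.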

P 388 tumour cells = experiment: In vivo P388 experiments (Brussels); set-up: species or system mice; conditions: for MAX T/C: days 1 to 5
Experimental: These experiments were carried out at the Institute Jules Bordet, Brussels, on CDF, female mice. The mice were inoculated intraperitoneally (IP) with 1×10^6 P 388 tumour cells. After 24 hours, the compounds were administrated as suspensions in "Tween-80" or using saline as vehicle. Six mice were used at each dose of the compound, given on days 1 to 5 and eighteen control mice were injected with saline.

[4] = tested on: R-1 cells (Rhabdomyosarcoma Cells); experiment: R-1 activity (bioliquid assay), cytotoxicity; assay type: cell-based; conditions: Rhabdomyosarcoma cell
Summary of the method: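 Rhabdomyosarcoma R-1 cells (~10^6 per dish) in Dulbecco's medium with 10% FCS were exposed to drug solution, which was then replaced by fresh medium. Cells were trypsinized after 48 hours and counted electronically.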

Ovarian (MRI-H-207) line = assay type: in vivo, human; conditions: 150 mg/kg, days of treatment 0,9,16
From the text: The xenograft experiments have been carried by Dr. H. H. Fiebig of the University of Freiburg [Lung-NSCLC (LXGF) line, Renal line, Breast line; See: H. H. Fiebig et al., Behring Inst. Mitt., 74 343] and by Dr. E. Boven of the Free University Hospital Amsterdam [Ovarian (MRI-H-207) line; See: E. Boven et al., Cancer Res., 45, 86 (1985) and E. Boven et al., Eur. J. Clin. Oncol., 21, 1253 (1985)].
Mice: C57B1 athymic (nu/nu) female mice, 8 to 10 weeks of age were used for s.c. bilateral implantation of tumour fragments 2 mm diameter.
Treatment: E.O. 9 was dissolved in saline at a concentration of 0.5 mg/ml prior to administration. Drug doses and schedules were derived from studies in experimental murine tumour systems and from orientation studies in non-tumour-bearing nude mice. Treatment was started i.v. when tumours measured 50-150 mm^3. After randomization a group of 6-7 tumour-bearing mice was treated and a group of 5-6 tumour-bearing mice served as control.
Evaluation of efficacy: Tumours were measured twice weekly in three dimensions. Efficacy was expressed as the mean of relative tumour volume in treated animals vs. that in control animals×100 (% T/C). The optimal value was calculated within 35 days after the last injection. Toxic death (dead mice within two weeks after the last injection) were excluded from the evaluation.
MRI-H-207: An undifferentiated adenocarcinoma kindly provided by Dr. A. E. Bogden, Worcester, Mass, with a doubling time of 3-5 days.

L1210 cells [5] = experiment: L1210 activity in clonogenic assay (TNO Rijswijk); assay type: cell-based; conditions: Mus musculus, L1210, 192 h, read-out: ID-50 L1210, clonogenic assay
From the text: The indoloquinones II (formula II) have been tested in respect of their cytotoxic activity against L1210 cells and R-1 cells (Rhabdomyosarcoma Cells) in a bioliquid assay at the department of oncology of the Free University of Amsterdam (Table I). In addition to this seven compounds (E.O. 1, E.O. 2, E.O. 4, E.O. 7, E.O. 9, E.O. 16 and E.O. 17) have been tested on L1210 activity in a clonogenic assay at TNO, Rijswijk. Further, the lowest active doses of the compounds E.O. 1, E.O. 2, E.O. 4 and E.O. 9 have been determined at TNO Rijswijk, according to the method described by Lamberts et al. [Oncology, 40, 301 (1983)]. (Table II). Eight indoloquinones (E.O. 1, E.O. 2, E.O. 4, E.O. 4A, E.O. 8, E.O. 9, E.O. 33 and E.O. 35) have been tested in a panel of five human tumour lines (TNO Rijswijk; Table III). From the latter group three indoloquinones (E.O. 1, E.O. 4 and E.O. 9) have been selected for a cytotoxicity study, involving five slowly growing human tumour lines (University of Freiburg; Table IV).
The L1210 clonogenic assay used was an improved variant of the method described earlier by H. MARTIN et al. [Cancer Chemother., Rep., 51 451 (1967)] and L. M. van Putten et al. [Cancer Treat. Rep., 60, 373 (1976)] for the growth into colonies of L1210 cells in a soft agar medium. From a suspension culture ~100 L1210 Cells (0.1 ml) were plated into […] culture dishes (Falcon), containing 1 ml of soft agar growth medium and the compound to be tested in appropriate concentrations. The soft agar growth medium consisted of Dulbecco medium supplemented with 15.8% horse serum, 60 μmol 2-mercapto-ethanol, 20 mg/ml L-asparagine and 0.3% bacto agar (Difco).
The culture dishes were incubated at 37° C. in an atmosphere of 1% CO2 in humidified air for 8 days. After this period of continuous drug exposure, colonies were counted and dose-effect curves were made.

in vivo = experiment: in vivo; set-up: species or system mice; conditions: mouse, IP, single dose, suspension in carboxymethyl cellulose (2%)
Experimental: The acute toxicity experiments were carried out with male C5 Black/Rij X CBA/Rij Fl hybrid mice at TNO, Rijswijk. The drugs were administrated IP as suspensions in carboxymethyl cellulose (2%) as a single dose at the first day.

L1210 = experiment: In vivo L1210 experiments (TNO Rijswijk); set-up: species or system mice
Experimental: The in vivo L1210 experiments were carried out in male Balb/c X DBA.2 Fl hybrid mice at TNO, Rijswijk.
In these experiments also, the drugs were administered IP as suspensions in carboxymethyl cellulose […] as a single dose at the first day.

[6] = Half-wave reduction potentials / polarography (University of Utrecht); assay type: physicochemical
From the text: *The halve wave reduction potentials (E1/2) have been determined at the
Pharmaceutical Laboratory of University of Utrecht. Only the first
(quinone) reduction potential has been given.
Additional evidence for the occurrence of a bioreductive activation mechanism during the cytotoxic action of indoloquinones (II) was obtained via electrochemical studies, which have been carried out at the Pharmaceutical Laboratory of the University of Utrecht. […]

[7] = L1210, 48 h, read-out: ID-50 L1210, Table VIII
[8] = read-out: ID-50 R-1, Table I, bioliquid assay
[9] = read-out: ID-50 R-1, Table VIII
[10] = 8 days continuous exposure, TNO Rijswijk

Structure (SMILES)	in vitro activity score, A 204 ([1]; 0.01 μg/ml)	in vitro activity score, A 204 ([1]; 0.1 μg/ml)	in vitro activity score, A 204 ([1]; 1.0 μg/ml)	in vitro activity score, A 204 ([1]; 10 μg/ml)	in vitro activity score, IgR-37 (IgR37 cells melanoma; 0.01 μg/ml)	in vitro activity score, IgR-37 (IgR37 cells melanoma; 10 μg/ml)	in vitro activity score, T 24 ([2]; 0.01 μg/ml)	in vitro activity score, T 24 ([2]; 0.1 μg/ml)	in vitro activity score, T 24 ([2]; 1.0 μg/ml)	in vitro activity score, MCF-7 (MCF7 breast cancer cells; 0.01 μg/ml)	in vitro activity score, MCF-7 (MCF7 breast cancer cells; 0.1 μg/ml)	in vitro activity score, MCF-7 (MCF7 breast cancer cells; 10 μg/ml)	in vitro activity score, WiDr (WiDr cells; colon tumour; 0.01 μg/ml)	in vitro activity score, WiDr (WiDr cells; colon tumour; 0.1 μg/ml)	in vitro activity score, WiDr (WiDr cells; colon tumour; 1.0 μg/ml)	IC50 (L1210 cells [3]; [7])	IC50 [4, 8]	IC50 [4, 9]	in vitro activity score, MCF-7 (MCF7 breast cancer cells; 1.0 μg/ml)	LD50 (in vivo)	further results
CC(=O)OCc1c2c(n(C)c1/C=C/CO)C(=O)C=C(N1CC1)C2=O [E.O. 4A, 3-Acetoxymethyl-5-aziridino-1-methyl-2-[1H-indole-4,7-dione]prop-β-en-α-ol]	-	-	+	+	-	+	-	-	+	-	-	+	-	-	+	0.15 µg/mL (≈ 0.454 µM)	0.02 µg/mL (≈ 0.0605 µM)	0.022 µg/mL (≈ 0.0666 µM)			in vitro activity score, IgR-37 (IgR37 cells melanoma; 1.0 μg/ml): +; in vitro activity score, T 24 ([2]; 10 μg/ml): +; in vitro activity score, WiDr (WiDr cells; colon tumour; 10 μg/ml): +; MAX T/C (P 388 tumour cells; 100 mg/kg): 120%
CN(Cc1cnc2nc(N)nc(N)c2n1)c1ccc(C(=O)N[C@@H](CCC(=O)O)C(=O)O)cc1 [Methotrex., reference compound]		+	+	+	-					-	-	-	-						-		T/C % (Ovarian (MRI-H-207) line): 47%; toxic deaths (Ovarian (MRI-H-207) line): 2/7
CCCCn1c(/C=C/CO)c(CO)c2c1C(=O)C=C(N1CC1)C2=O [E.O. 17, 5-Aziridino-3-hydroxymethyl-1-butyl-2-[1H-indole-4,7-dione]prop-β-en-αol]																				50 to 80 mg/kg	IC50 (L1210 cells [5]): 0.3 µg/mL (≈ 0.908 µM)
COC1=CC(=O)c2c(c(CO)c(/C=C/CO)n2C)C1=O [E.O. 7, 3-Hydroxymethyl-5-methoxy-1-methyl-2-[1H-indole-4,7-dione]prop-β-en-α-ol]																				> 100 mg/kg	IC50 (L1210 cells [3]; L1210, Table I, bioliquid assay, 48 hours, read-out: ID-50 L1210): 0.5 µg/mL (≈ 1.8 µM); % T/C (L1210; 250 mg/kg IP single dose): tox.; IC50 (L1210 cells [5]; [10]): 2.2 µg/mL (≈ 7.93 µM); direct current polarogram ([6]; DC-polarography): a reduction wave representing the reversible reduction of the benzoquinone nucleus; half-wave potential E1.2, wave I ([6]; pH = 8 vs Ag/AgCl): -367 mV; IC50 ([4]; Table I, bioliquid assay, read-out: ID-50 R-1): 4.2 µg/mL (≈ 15.1 µM)
CCCCn1c(/C=C/CO)c(CO)c2c1C(=O)C=C(OC)C2=O [E.O. 16, 3-Hydroxymethyl-5-methoxy-1-butyl-2-[1H-indole-4,7-dione]prop-β-en-α-ol]																				80 mg/kg	response vs control in vivo at 80 mg/kg (L1210; Mus musculus, L1210, 80 mg/kg IP single dose, read-out: % T/C): 89%; response vs control in vivo at 100 mg/kg (L1210; Mus musculus, L1210, 100 mg/kg IP single dose, read-out: % T/C): 100%; IC50 (L1210 cells [5]; [10]): 0.9 µg/mL (≈ 2.82 µM)
CC(=O)OC/C=C/c1c(COC(C)=O)c2c(n1C)C(=O)C(C)=C(N1CC1)C2=O [E.O. 35, 3-Acetoxymethyl-5-aziridino-1,6-dimethyl-2-[1H-indole-4,7-dione]prop-β-en-αyl acetate]	-	-	-		-	+	-	-	-	-	-		-	-	-	0.55 µg/mL	0.3 µg/mL	0.32 µg/mL	-		in vitro activity score, IgR-37 (IgR37 cells melanoma; 0.1 μg/ml): -; MAX T/C (P 388 tumour cells; 400 mg/kg): 131%; T/C at the optimal dose (P 388 tumour cells; optimal dose): ~130%
